In assay [1] the test system is HT-29. Briefly: Antiproliferative activity against human HT-29 cells by MTT assay. It is filed as functional, cell-based.
The test system of another assay is PANC-1. In words: Antiproliferative activity against human PANC1 cells by MTT assay. Format: functional, cell-based. For orientation: Formazan colour is commonly taken as a measure of viable cells.
In the next assay the test system is HepG2. In words: Antiproliferative activity against human HepG2 cells by MTT assay. It is filed as functional, cell-based.
The test system of another assay is HeLa. In words: Growth inhibition of human HeLa cells by MTT assay. Format: functional, cell-based.
Another assay has as its system A-375. Briefly: Growth inhibition of human A375 cells by MTT assay. Format: functional, cell-based.
Assay [2] deals with SW480. In words: Growth inhibition of human SW480 cells at 330 umol/L by MTT assay relative to control. It is filed as functional. As to conditions: read-out: GI.
A further assay concerns A549. In words: Growth inhibition of human A549 cells at 330 umol/L by MTT assay relative to control. Format: functional. Conditions: read-out: GI.
Another assay relates to A-431. In words: Growth inhibition of human A431 cells at 120 umol/L by MTT assay relative to control. Conditions: read-out: GI. It is filed as functional.
Assay [3] relates to SW480. In words: Antitumor activity against human SW480 cells xenografted in Balb/c mouse assessed as tumor growth inhibition at 30 mg/kg, ip administered 2 times per week relative to control. Conditions: read-out: TGI. Format: functional. For orientation: Xenograft models place foreign cells or tissue in a host animal.
The subject of assay [4] is HT-29. Briefly: Growth inhibition of human HT-29 cells at 1.25 ug/ml by MTT assay relative to control. It is filed as functional. As to conditions: read-out: GI.
Assay [5] concerns HT-29. Briefly: Growth inhibition of human HT-29 cells at 5 ug/ml by MTT assay relative to control. It is filed as functional. Conditions: read-out: GI.
For assay [6], the system named is HT-29. In words: Growth inhibition of human HT-29 cells at 10 ug/ml by MTT assay relative to control. It is filed as functional. As to conditions: read-out: GI.
Assay [7] relates to HT-29. Briefly: Growth inhibition of human HT-29 cells at 2.5 ug/ml by MTT assay relative to control. It is filed as functional. Conditions: read-out: GI.

A value given as a limit tells only on which side of the number the result lay.

By IC50 is commonly meant the midpoint of a concentration-inhibition curve. As to `COc1ccc(/C=C2\CC[C@@H]3[C@H]4CCCN5CCC[C@@H](CN3C2=O)[C@@H]45)cc1`, the IC50 with HT-29 [1] and in the assay on PANC-1 was 27.8 µM throughout. For the compound `COc1cc(/C=C2\CC[C@@H]3[C@H]4CCCN5CCC[C@@H](CN3C2=O)[C@@H]45)cc(OC)c1OC`, the IC50 in the assay on HT-29 [1] and with PANC-1 was 9.05 µM each time. In the assay with HepG2, `O=C(CCC[C@@H]1[C@H]2CCCN3CCC[C@@H](CN1Cc1ccccc1)[C@@H]23)OCCc1no[n+]([O-])c1S(=O)(=O)c1ccccc1` yielded an IC50 of 11.4 µM. In the case of `CCCCOC(=O)CCC[C@@H]1[C@H]2CCCN3CCC[C@@H](CN1Cc1ccccc1)[C@@H]23`, the IC50 turned out to be 304 µM in the assay with HeLa and 149 µM with A-375. Consider `O=C(CCC[C@@H]1[C@H]2CCCN3CCC[C@@H](CN1Cc1ccccc1)[C@@H]23)OCCCc1no[n+]([O-])c1S(=O)(=O)c1ccccc1`, for which 11.5 µM corresponded to half-maximal inhibition with HepG2 (IC50). As to `COc1ccc(/C=C2\CC[C@@H]3[C@H]4CCCN5CCC[C@@H](CN3C2=O)[C@@H]45)c(OC)c1OC`, the IC50 in the assay on HT-29 [1] and in the assay with PANC-1 was 13.2 µM in each case. As to `O=C1C[C@@H](SC(=S)N2CCCCC2)C[C@@H]2[C@H]3CCCN4CCC[C@@H](CN12)[C@@H]34`, the inhibition of growth at 330 µM in the assay with SW480 [2] was > 65%; in the assay on A549, > 95%. For the same compound, the inhibition of growth at 120 µM in the assay with A-431 was > 94%. Consider `COc1ccc(/C=C2\CC[C@@H]3[C@H]4CCCN5CCC[C@@H](CN3C2=O)[C@@H]45)cc1OC`, for which the IC50 with HT-29 [1] and in the assay with PANC-1 was 18 µM in each case. Consider `O=C(CCC[C@@H]1[C@H]2CCCN3CCC[C@@H](CN1Cc1ccccc1)[C@@H]23)NCCc1no[n+]([O-])c1S(=O)(=O)c1ccccc1`, for which the IC50 with HepG2 is 8.02 µM. The compound `O=C(CCC[C@@H]1[C@H]2CCCN3CCC[C@@H](CN1Cc1ccccc1)[C@@H]23)OCCOCCc1no[n+]([O-])c1S(=O)(=O)c1ccccc1` showed an IC50 in the assay with HepG2 of 14.2 µM. This IC50 is about 1.8-fold higher than that of the compound before. Consider `O=c1[nH]cc(F)c(=O)[nH]1` [FLUOROURACIL], for which the inhibition in vivo at 30 mg/kg in the assay with SW480 [3] turned out to be 63.1%.

In the case of `CCc1c2c(nc3ccc(OC(=O)N4CCC(N5CCCCC5)CC4)cc13)-c1cc3c(c(=O)n1C2)COC(=O)[C@]3(O)CC` [IRINOTECAN], the inhibition of growth at 1.25 µg/mL with HT-29 [4] turned out to be 22.9%. Also, in the assay with HT-29 [5], the inhibition of growth at 5 µg/mL was determined as 54.7%. Besides, the inhibition of growth at 10 µg/mL in the assay on HT-29 [6] stood at 59.3%. In the assay on HT-29 [7], the inhibition of growth at 2.5 µg/mL is 37.4%.

Source of the values: ChEMBL document CHEMBL4325859, “Research advances on anticancer activities of matrine and its derivatives: An updated overview” (Eur J Med Chem, 2019).
